Consider eight molecules from patent publication US20250108139A1, “PEPTIDE UREA DERIVATIVE, PHARMACEUTICAL COMPOSITION CONTAINING PEPTIDE UREA DERIVATIVE, AND APPLICATION OF PEPTIDE UREA DERIVATIVE” (BIVISION PHARMACEUTICALS, INC, priority 2022, published 2025).

For one data set, the target named is PSMA protein (Homo sapiens (Human), UniProt Q04609). Nature of the data set: Affinity of DB compounds to PSMA protein using Biacore (Effect Example 3). The following applies: Biacore 8K, 15° C., 1:1 binding model; pKD=−Log KD. Here is the method: The affinity of DB compounds to PSMA protein was tested using the Biacore 8K (Cytiva) instrument to detect ligand binding to PSMA protein (Sino Biological). PSMA protein was captured on an SA chip. Before fixing the ligand (flow paths 1 and 2, flow rate of 10 μL/min), PSMA protein (10 μg/mL, flow rate of 5 μL/min, injection time of 600 s) was fixed on flow path 2 using a flow buffer. The sensor surface was adjusted by continuously injecting 1 M NaCl three times in 50 mM NaOH. After each ligand injection, additional cleaning was performed using isopropanol in 1 M NaCl and 50 mM NaOH (flow paths 1 and 2, flow rate of 10 μL/min, injection time of 60 s).
All compounds were dissolved in 100% DMSO and diluted to 10 mM, then further diluted to the appropriate highest concentration in the analysis buffer (PBS, PH 7.4, 1 mM TCEP ([…]), 0.05% P20, 2% DMSO). The analysis was conducted under the following conditions: 15° C. analysis temperature; analysis steps=all set to LMW kinetics; cycle type=single cycle (90 s contact time, 1800 s dissociation time, 30 μL/min flow rate, flow paths 1 and 2); detection in flow=path 2-1. Data evaluation was performed using Biacore Insight Evaluation Software, fitting the data to a 1:1 binding model.
Biacore results are shown in Table 5: pKD=−Log KD, wherein KD is the binding affinity of the compound to PSMA protein measured by Biacore. It is expressed by Kd (M)=Kd (1/s)/Ka (1/Ms). A indicates pKD>8; B indicates 7<pKD<8; C indicates 6<pKD<7; D indicates pKD<6.
A general note: Surface plasmon resonance follows binding to a sensor surface in real time, without labels.

In data set [1] the test system is PSMA-positive 22rv1 tumor-bearing mouse. Nature of the data set: 177Lu labeling and animal biodistribution experiment, gamma counter. The data set is classed as in vivo. The note with it: 177Lu-labeled compound, 24 h after tail vein injection, n = 2. The protocol: Distribution in PSMA-positive tumor-bearing mouse tissues: Tumor-bearing animals (purchased from Shanghai Alamo Pharmaceutical Technology Co., Ltd.) were subcutaneously inoculated with 3×10^6 22rv1 cells (in 50% Matrigel, Corning) into the right shoulder region of 6-9 week old (Balb/c Nude) mouse. Once the tumors had grown to an appropriate size, ^177Lu-radiolabeled DB compounds were injected into the mouse via the tail vein (approximately 1.85 MBq-3.7 MBq/mouse, specific activity: 22423.82 Kbq/μg). After administration, the animals were euthanized using carbon dioxide inhalation at 24 hours. The blood and organs (blood, liver, kidney, muscle, tumor) were collected.
Blood was collected through the abdominal aorta and 100 μL was immediately quantified into designated centrifuge tubes (weighed). After collection, the organs were washed twice with deionized water, dried, placed in pre-weighed tubes, and weighed again to calculate the sample weight. Samples were measured on the day of collection. All blood and tissue samples were measured for radioactivity using a gamma counter. The results are shown in FIGS. 3, 4, 5, 6, 7, and Table 6.

For data set [2], the system named is human prostate cancer cell line 22RV1 tumor model. Nature of the data set: Micro-SPECT/CT scanning imaging study in mouse transplanted with 22RV1. It is filed as in vivo. The following applies: for Uptake in Bladder / Uptake in Kidney / Uptake in Liver / Uptake in Muscle / Uptake in Tumor (22Rv1): i.v., Micro-SPECT/CT. Here is the method: Human prostate cancer cell line 22RV1 cells were subcutaneously injected into the axilla of nude mouse to establish a prostate cancer tumor model. Approximately 3.7 MBq (100 μCi/200 μL) of the ^177Lu-labeled compound [^177Lu] DB-01 was administered via intravenous injection. SPECT/CT images were acquired using the U-SPECT+/CT (MI Labs) at 3rd hour, 5th hour, 24th hour, 72nd hour, 120th hour and 168th hour post-injection, and the resulting SPECT/CT images were quantitatively analyzed.
Table 4 presents the uptake in various organs of mouse at the 3rd hour, 5th hour, 24th hour, 72nd hour, 120th hour, and 168th hour post-injection of [^177Lu] DB-01. The results are expressed as the quantitative percentage of the injected dose (% ID)/g, based on Micro-SPECT/CT quantitative analysis.

Sequence of PSMA protein (Q04609 whole entry): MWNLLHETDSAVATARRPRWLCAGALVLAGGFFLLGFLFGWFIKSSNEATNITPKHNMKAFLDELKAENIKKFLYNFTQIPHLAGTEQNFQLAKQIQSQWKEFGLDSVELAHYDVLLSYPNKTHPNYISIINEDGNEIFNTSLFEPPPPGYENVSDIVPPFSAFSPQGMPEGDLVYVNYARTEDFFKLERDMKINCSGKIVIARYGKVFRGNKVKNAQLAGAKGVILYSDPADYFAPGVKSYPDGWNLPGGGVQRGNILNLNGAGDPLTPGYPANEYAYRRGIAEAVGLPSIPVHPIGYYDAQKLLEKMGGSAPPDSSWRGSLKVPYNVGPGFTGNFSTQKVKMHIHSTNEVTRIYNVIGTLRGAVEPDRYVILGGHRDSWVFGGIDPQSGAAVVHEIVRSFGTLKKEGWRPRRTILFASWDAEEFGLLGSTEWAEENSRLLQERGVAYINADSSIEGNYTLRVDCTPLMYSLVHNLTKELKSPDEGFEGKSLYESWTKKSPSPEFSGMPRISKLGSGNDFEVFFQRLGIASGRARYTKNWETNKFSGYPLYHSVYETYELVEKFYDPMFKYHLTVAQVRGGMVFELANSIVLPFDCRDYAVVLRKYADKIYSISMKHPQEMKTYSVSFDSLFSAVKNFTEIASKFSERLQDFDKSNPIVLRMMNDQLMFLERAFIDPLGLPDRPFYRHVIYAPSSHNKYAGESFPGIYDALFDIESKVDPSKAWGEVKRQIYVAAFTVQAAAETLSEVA

A word on the Kd: it is the constant that tells how readily two partners part at equilibrium. Low values mean a tighter complex, high ones a looser complex. Consider `O=C(O)CC[C@H](NC(=O)N[C@@H](CCCCNC(=O)[C@H](Cc1ccc2ccccc2c1)NC(=O)[C@H]1CC[C@H](CNC(=O)CNC(=O)c2cc(NC(=O)CN3CCN(CC(=O)O)CCN(CC(=O)O)CCN(CC(=O)O)CC3)cc(C(=O)NCC(=O)NC[C@H]3CC[C@H](C(=O)N[C@@H](Cc4ccc5ccccc5c4)C(=O)NCCCC[C@H](NC(=O)N[C@@H](CCC(=O)O)C(=O)O)C(=O)O)CC3)c2)CC1)C(=O)O)C(=O)O` [DB-02], for which, at PSMA protein, the Kd is under 10 nM.
`O=C(O)CC[C@H](NC(=O)N[C@@H](CCCCNC(=O)[C@H](Cc1ccc2ccccc2c1)NC(=O)c1ccc(C2CCN(C(=O)CCC(=O)NCC(=O)N3CN(C(=O)CNC(=O)CCC(=O)N4CCC(c5ccc(C(=O)N[C@@H](Cc6ccc7ccccc7c6)C(=O)NCCCC[C@H](NC(=O)N[C@@H](CCC(=O)O)C(=O)O)C(=O)O)cc5)CC4)CN(C(=O)CNC(=O)CN4CCN(CC(=O)O)CCN(CC(=O)O)CCN(CC(=O)O)CC4)C3)CC2)cc1)C(=O)O)C(=O)O` [DB-12] showed a Kd on PSMA protein of under 10 nM. For the same molecule, in data set [1], the Blood uptake is recorded as 0.145 % ID/g, the Kidney uptake turned out to be 88.175 % ID/g, the Liver uptake was found to be 1.415 % ID/g and the Muscle uptake amounted to 0.135 % ID/g.
On PSMA protein, `O=C(O)CC[C@H](NC(=O)N[C@@H](CCCCNC(=O)[C@H](Cc1ccc2ccccc2c1)NC(=O)c1ccc2c(c1)CCN(C(=O)CCC(=O)NCC(=O)N1CN(C(=O)CNC(=O)CCC(=O)N3CCc4cc(C(=O)N[C@@H](Cc5ccc6ccccc6c5)C(=O)NCCCC[C@H](NC(=O)N[C@@H](CCC(=O)O)C(=O)O)C(=O)O)ccc4C3)CN(C(=O)CNC(=O)CN3CCN(CC(=O)O)CCN(CC(=O)O)CCN(CC(=O)O)CC3)C1)C2)C(=O)O)C(=O)O` [DB-14] showed a Kd of under 10 nM. In data set [1], this molecule had a Blood uptake of 0.06 % ID/g, a Kidney uptake of 31.72 % ID/g, a Liver uptake of 0.37 % ID/g and a Muscle uptake of 0.1 % ID/g. The same molecule showed a Tumor uptake in data set [1] of 43.175 % ID/g.
`O=C(O)CC[C@H](NC(=O)NC(CCCCNC(=O)[C@H](Cc1ccc2ccccc2c1)NC(=O)[C@H]1CC[C@H](NC(=O)COCCOCCNC(=O)c2cc(NC(=O)CCCCCCCNC(=O)CN3CCN(CC(=O)O)CCN(CC(=O)O)CCN(CC(=O)O)CC3)cc(C(=O)NCCOCCOCC(=O)N[C@H]3CC[C@H](C(=O)N[C@@H](Cc4ccc5ccccc5c4)C(=O)NCCCC[C@H](NC(=O)N[C@@H](CCC(=O)O)C(=O)O)C(=O)O)CC3)c2)CC1)C(=O)O)C(=O)O` (stereo partly shown) [DB-15] had a Kd at PSMA protein of under 10 nM. In data set [1], this molecule gave a Blood uptake of 0.035 % ID/g, a Kidney uptake of 8.76 % ID/g, a Liver uptake of 0.095 % ID/g and a Muscle uptake of 0.04 % ID/g. Further, the Tumor uptake in data set [1] amounted to 19.46 % ID/g.
Take `O=C(O)CC[C@H](NC(=O)NC(CCCCNC(=O)[C@H](Cc1ccc2ccccc2c1)NC(=O)[C@H]1CC[C@H](NC(=O)CCC(=O)NCCCC[C@H](NC(=O)CCC(=O)N[C@H]2CC[C@H](C(=O)N[C@@H](Cc3ccc4ccccc4c3)C(=O)NCCCC[C@H](NC(=O)N[C@@H](CCC(=O)O)C(=O)O)C(=O)O)CC2)C(=O)NCCNC(=O)CN2CCN(CC(=O)O)CCN(CC(=O)O)CCN(CC(=O)O)CC2)CC1)C(=O)O)C(=O)O` (stereo partly shown) [DB-16]: the Kd on PSMA protein was under 10 nM. In data set [1], this molecule showed a Blood uptake of 0.03 % ID/g, a Kidney uptake of 5.135 % ID/g, a Liver uptake of 0.185 % ID/g and a Muscle uptake of 0.045 % ID/g. This molecule also registered a Tumor uptake in data set [1] of 12.015 % ID/g.
With `O=C(O)CC[C@H](NC(=O)NC(CCCCNC(=O)[C@H](Cc1ccc2ccccc2c1)NC(=O)[C@H]1CC[C@H](NC(=O)c2cc(NC(=O)CNC(=O)CN3CCN(CC(=O)O)CCN(CC(=O)O)CCN(CC(=O)O)CC3)cc(C(=O)N[C@H]3CC[C@H](C(=O)N[C@@H](Cc4ccc5ccccc5c4)C(=O)NCCCC[C@H](NC(=O)N[C@@H](CCC(=O)O)C(=O)O)C(=O)O)CC3)c2)CC1)C(=O)O)C(=O)O` (stereo partly shown) [DB-17], at PSMA protein, the Kd was under 10 nM.
`O=C(O)CC[C@H](NC(=O)NC(CCCCNC(=O)[C@H](Cc1ccc2ccccc2c1)NC(=O)c1ccc(C2CCN(C(=O)CCC(=O)NCCCC[C@H](NC(=O)CCC(=O)N3CCC(c4ccc(C(=O)N[C@@H](Cc5ccc6ccccc6c5)C(=O)NCCCC[C@H](NC(=O)N[C@@H](CCC(=O)O)C(=O)O)C(=O)O)cc4)CC3)C(=O)NCCNC(=O)CN3CCN(CC(=O)O)CCN(CC(=O)O)CCN(CC(=O)O)CC3)CC2)cc1)C(=O)O)C(=O)O` (stereo partly shown) [DB-20] showed a Kd on PSMA protein of under 10 nM. In addition, in data set [1], the Blood uptake is 0.160 % ID/g, the Kidney uptake amounted to 74.455 % ID/g, the Liver uptake came to 1.020 % ID/g and the Muscle uptake is 0.175 % ID/g. For the same molecule, the Tumor uptake in data set [1] is given as 41.73 % ID/g.
As for `O=C(O)CC[C@H](NC(=O)N[C@@H](CCCCNC(=O)[C@H](Cc1ccc2ccccc2c1)NC(=O)C1CCC(CNC(=O)c2cc(NC(=O)C[N+]34CC[N+]56CC[N+]78CC[N+]9(CC3)CC(=O)[O][Lu-4]4597([O]C(=O)C6)[O]C(=O)C8)cc(C(=O)NC[C@H]3CC[C@H](C(=O)N[C@@H](Cc4ccc5ccccc5c4)C(=O)NCCCC[C@H](NC(=O)N[C@@H](CCC(=O)O)C(=O)O)C(=O)O)CC3)c2)CC1)C(=O)O)C(=O)O` (stereo partly shown) [[^177Lu] DB-01], the “Uptake in Bladder” value is 65.50 ± 36.65 % ID/g in data set [2] (3 hr post-injection); 140.36 ± 10.51 % ID/g in data set [2] (5 hr post-injection); 0.61 ± 0.00 % ID/g in data set [2] (24 hr post-injection); 1.03 ± 0.62 % ID/g in data set [2] (72 hr post-injection); 0.92 ± 0.06 % ID/g in data set [2] (120 hr post-injection); 1.01 ± 0.38 % ID/g in data set [2] (168 hr post-injection). Moreover, the “Uptake in Kidney” value is on record as 43.00 ± 7.38 % ID/g in data set [2] (3 hr post-injection); 19.29 ± 2.77 % ID/g in data set [2] (5 hr post-injection); 1.32 ± 0.63 % ID/g in data set [2] (24 hr post-injection); 1.38 ± 0.29 % ID/g in data set [2] (72 hr post-injection); 0.77 ± 0.62 % ID/g in data set [2] (120 hr post-injection); 1.53 ± 0.46 % ID/g in data set [2] (168 hr post-injection). Moreover, the “Uptake in Liver” value in data set [2] (3 hr post-injection) was 2.75 ± 0.90 % ID/g; in data set [2] (5 hr post-injection) it was 1.56 ± 0.15 % ID/g; in data set [2] (24 hr post-injection) it was 0.91 ± 0.45 % ID/g; in data set [2] (72 hr post-injection), 0.90 ± 0.42 % ID/g; in data set [2] (120 hr post-injection) it was 0.99 ± 0.22 % ID/g; in data set [2] (168 hr post-injection), 1.04 ± 0.26 % ID/g. The “Uptake in Muscle” value is recorded as 1.97 ± 0.71 % ID/g in data set [2] (3 hr post-injection); 1.10 ± 0.56 % ID/g in data set [2] (5 hr post-injection); 0.51 ± 0.17 % ID/g in data set [2] (24 hr post-injection); 0.81 ± 0.23 % ID/g in data set [2] (72 hr post-injection); 0.43 ± 0.17 % ID/g in data set [2] (120 hr post-injection); 0.65 ± 0.34 % ID/g in data set [2] (168 hr post-injection). For the same molecule, the “Uptake in Tumor (22Rv1)” value in data set [2] (3 hr post-injection) came out at 21.25 ± 4.38 % ID/g; in data set [2] (5 hr post-injection), 21.28 ± 0.42 % ID/g; in data set [2] (24 hr post-injection), 15.51 ± 2.65 % ID/g; in data set [2] (72 hr post-injection), 12.41 ± 0.95 % ID/g; in data set [2] (120 hr post-injection), 8.90 ± 0.48 % ID/g; in data set [2] (168 hr post-injection), 7.85±1.16 % ID/g. Besides, in data set [2] (at 180 minutes, according to calculations), the uptake in tumor is listed as 13.55±3.85 % ID/g. The excretion result in data set [2] (early stages post-injection) is “rapidly excreted through the kidneys and bladder”. Also, the “time at which concentration of the radiopharmaceutical in the tumor reaches its peak” value in data set [2] (post-administration) was 5 h.
